Laboratory results as given in patent US9089539B2 (Indiana University Research and Technology Corporation, priority 2008, dated 2015).
Where a SMILES comes first, the peptide text is derived from it. Bridges are numbered along the chain shown (N, C = ends). Where no end group is shown, it is not given here. Side-chain parts run from the residue outwards. [ ]: non-standard residue; d: D form. The star is where a group is joined. Desaminohistidyl = O=C(CCc1c[nH]cn1)*; PLA = phenyl lactic acid; Aib = CC(C)(N)C(=O)O

Tests used:
[1] = Cleavage of dipeptide-extended prodrugs on incubation in PBS (HPLC/MS); assay type: physicochemical
Method: Preliminary analyses were performed with these crude peptides to get an approximation of their relative conversion rates in Phosphate Buffered Saline (PBS) buffer (pH, 7.2) using high performance liquid chromatography (HPLC) and MALDI analysis. The crude peptide samples were dissolved in the PBS buffer at a concentration of 1 mg/ml. 1 ml of the resulting solution was stored in a 1.5 ml HPLC vial which was then sealed and incubated at 37° C. Aliquots of 100 μl were drawn out at various time intervals, cooled to room temperature and analyzed by HPLC.
HPLC analyses were performed on a 150 mm×4.6 mm C18 Vydac column. The flow rate was 1 ml/min. […] A linear gradient was employed (40% to 70% B in 15 minutes).
Each N-terminally extended peptide was incubated in PBS buffer at 37° C. for approximately a week. Alternatively, each peptide was heated for 120 min at 100° C. to accelerate the amide bond cleavage. Cleavage of the prodrugs was analyzed by reverse phase HPLC and MS.
To explore the possible formation of 2,5-diketopiperazine (DKP) or 2,5-diketomorpholine (DMP) and the simultaneous generation of HO-F^7,GLP(8-36)-CEX, the prodrug was incubated in PBS buffer at 37° C. for approximately a week. The peptide was also heated at 100° C. to determine the susceptibility to cleavage (Table 4).

GLP-1 receptor = biological target: T1, GLP-1 receptor (Homo sapiens, UniProt P43220); test: Luciferase-based reporter gene assay for cAMP detection, GLP-1 receptor; assay type: cell-based
T1 construct: expressed in transfected cells; host or cells: HEK293
T1 sequence (P43220 24-463, species assumed): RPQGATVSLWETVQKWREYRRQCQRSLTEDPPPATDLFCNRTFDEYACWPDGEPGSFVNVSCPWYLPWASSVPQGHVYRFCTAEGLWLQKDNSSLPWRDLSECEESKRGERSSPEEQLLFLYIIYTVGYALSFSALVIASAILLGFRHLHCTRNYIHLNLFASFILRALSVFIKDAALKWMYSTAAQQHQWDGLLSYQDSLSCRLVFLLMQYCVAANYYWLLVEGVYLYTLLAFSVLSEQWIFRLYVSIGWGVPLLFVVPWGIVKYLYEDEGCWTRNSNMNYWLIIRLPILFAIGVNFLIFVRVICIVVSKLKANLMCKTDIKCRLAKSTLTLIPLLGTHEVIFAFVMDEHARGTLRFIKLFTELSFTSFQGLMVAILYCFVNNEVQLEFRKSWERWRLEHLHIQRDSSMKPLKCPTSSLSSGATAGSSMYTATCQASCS

blood glucose [2] = test: Glucose challenge in DIO mice after intraperitoneal peptide injection (Examples 5-7); assay type: in vivo; details: 2 nmol/kg
Method: Six groups of diabetes-induced obesity (DIO) mice (eight mice per group) having an initial average body weight of 49.5 g were intraperitoneally injected with 2 nmol/kg of a PBS vehicle control or one of Peptides A-E described below:
(§1) Fifteen minutes after injection with one of the compounds or with vehicle control (at time point 0), a 25% (w/v) glucose saline solution was injected at a dose of 1.5 g per kg of body weight. Blood glucose concentrations of the mice were measured at the time of injection of the compound or vehicle control, at the time of glucose injection, and at 15, 30, 60, and 120 minutes after glucose injection.
Blood glucose levels of the mice were measured as described in Example 5.

[3] = Body weight and food intake of DIO mice over one week (Example 8); assay type: in vivo; details: 15 or 70 nmol/kg; for total food intake: seven days after injection
Method: (§2) Nine groups of diabetes-induced obesity (DIO) mice (8 mice per group) having an initial average body weight of 56 g were intraperitoneally injected once and followed for one week with 15 or 70 nmol/kg of Peptides Y, Z, F-Peg, and G-Peg described below or PBS vehicle control.
The body weight of each mouse of each group was measured on 1, 3, 5, and 7 days after injection with the vehicle control or peptide. Total change in body weight was calculated by subtracting the average body weight of a group at the time of injection with vehicle or peptide from the average body weight of the group seven days after injection. Food intake by each group of mice was measured during the course of the week as well. Total food intake was measured seven days after injection with vehicle control or peptide. […] The Ser11 substitution or the des-amino His7 reduces total efficacy.

blood glucose [4] = test: Glucose challenge in DIO mice after pegylated peptide injection (Example 8); assay type: in vivo; details: 15 or 70 nmol/kg, glucose injected sixty minutes after peptide
Method: as §2
as §1, with “Sixty” for “Fifteen”, “peptides” for “compounds”, “peptide” for “compound”, “control (at time point −60),” for “control,”, “injection (at time point 0),” for “injection,”

| Compound | blood glucose of prodrug form versus corresponding non-prodrug form (blood glucose [2]) | total food intake [3] | blood glucose concentrations versus vehicle control (blood glucose [4]) | further results |
| --- | --- | --- | --- | --- |
| 2 (FTSEYSKYLDERRAQDFVQWLMNTGPSSGAPPPS; lactam 7-11) [Peptide 2] |  |  |  | t1/2 ([1]; buffer): HO-Phe-dVal (t1/2 = 50.5 hrs) |
| CC[C@H](C)[C@H](NC(=O)[C@H](Cc1ccccc1)NC(=O)[C@H](CCC(=O)O)NC(=O)[C@H](CCCCN)NC(=O)[C@H](C)NC(=O)[C@H](C)NC(=O)[C@H](CCC(N)=O)NC(=O)CNC(=O)[C@H](CCC(=O)O)NC(=O)[C@H](CC(C)C)NC(=O)[C@H](Cc1ccc(O)cc1)NC(=O)[C@H](CO)NC(=O)[C@H](CO)NC(=O)[C@@H](NC(=O)[C@H](CC(=O)O)NC(=O)[C@H](CO)NC(=O)[C@@H](NC(=O)[C@H](Cc1ccccc1)NC(=O)[C@H](COC(=O)CNC(=O)CN)NC(=O)CNC(=O)[C@H](CCC(N)=O)NC(=O)[C@H](C)NC(=O)[C@@H](N)Cc1ccccc1)[C@@H](C)O)C(C)C)C(=O)N[C@@H](C)C(=O)N[C@@H](Cc1c[nH]c2ccccc12)C(=O)N[C@@H](CC(C)C)C(=O)N[C@H](C(=O)N[C@@H](CCCCN)C(=O)NCC(=O)NCC(=O)N1CCC[C@H]1C(=O)N[C@@H](CO)C(=O)N[C@@H](CO)C(=O)NCC(=O)N[C@@H](C)C(=O)N1CCC[C@H]1C(=O)N1CCC[C@H]1C(=O)N1CCC[C@H]1C(=O)N[C@@H](CO)C(N)=O)C(C)C (H-FAQGS([Gly-Gly])FTSDVSSYLEGQAAKEFIAWLVKGGPSSGAPPPS-NH2; N-terminus and C-terminus assumed) |  |  |  | half-life ([1]; buffer, PBS pH 7.2, 37° C.): 2.7 h; prodrug converted to the active entity ([1]; in 5 hours, worked out from the half life ([…])): approximately 70% |
| F^7,GLP(8-37): aa 7-37 of GLP-1 with the His at position 7 replaced with Phe (FAEGTFTSDVSSYLEGQAAKEFIAWLVKGRG; Glucagon-like peptide 1(7-37); UniProt P01275 98-128, looked up, variant H7F) |  |  |  | potency of native GLP-1 (GLP-1 receptor; relative to native GLP): 10% |
| HAEGTFTSDVSSYLEGQAAKEFIAWLVKGRGKRNRNNIA (listed as Homo sapiens) [GLP-oxyntomodulin] |  |  |  | potency relative to native GLP-1 (GLP-1 receptor): at least as potent as the native GLP-1 peptide |
| H^7AEGTFTSDVSSYLEGQAAKEFIAWLVKGXPSSGAPPPS-amide [GLP(7-36)-CEX amide] |  |  |  | potency relative to native GLP-1 (GLP-1 receptor): approximately ten times more potent in vitro than the native GLP-1 sequence |
| Peptide A: prodrug of Peptide B, d-Phe-dPhe attached via the O-terminus; SEQ ID NO: 645 ({dF-dF-PLA}-[Aib]EGTFTSDVSSYLEEQAAKEFIAWLVKGRPSSGAPPPS-NH2; also: dF-PLA joined by ester bond) | higher than the blood glucose levels of mice injected with the corresponding non-prodrug forms of the peptides |  |  |  |
| Peptide C: prodrug of Peptide B, d-Phe-d-Val attached via the O-terminus; SEQ ID NO: 647 ({dF-dV-PLA}-[Aib]EGTFTSDVSSYLEEQAAKEFIAWLVKGRPSSGAPPPS-NH2; also: dV-PLA joined by ester bond) | higher than the blood glucose levels of mice injected with the corresponding non-prodrug forms of the peptides |  |  |  |
| Peptide E: prodrug of Peptide D, d-Phe-d-Val ester on Ser at position 11; SEQ ID NO: 649 (H[Aib]EGS([dV-dF])FTSDVSSYLEEQAAKEFIAWLVKGRPSSGAPPPS-NH2; N-terminus assumed; SMILES CC[C@H](C)[C@H](NC(=O)[C@H](Cc1ccccc1)NC(=O)[C@H](CCC(=O)O)NC(=O)[C@H](CCCCN)NC(=O)[C@H](C)NC(=O)[C@H](C)NC(=O)[C@H](CCC(N)=O)NC(=O)[C@H](CCC(=O)O)NC(=O)[C@H](CCC(=O)O)NC(=O)[C@H](CC(C)C)NC(=O)[C@H](Cc1ccc(O)cc1)NC(=O)[C@H](CO)NC(=O)[C@H](CO)NC(=O)[C@@H](NC(=O)[C@H](CC(=O)O)NC(=O)[C@H](CO)NC(=O)[C@@H](NC(=O)[C@H](Cc1ccccc1)NC(=O)[C@H](COC(=O)[C@H](NC(=O)[C@H](N)Cc1ccccc1)C(C)C)NC(=O)CNC(=O)[C@H](CCC(=O)O)NC(=O)C(C)(C)NC(=O)[C@@H](N)Cc1c[nH]cn1)[C@@H](C)O)C(C)C)C(=O)N[C@@H](C)C(=O)N[C@@H](Cc1c[nH]c2ccccc12)C(=O)N[C@@H](CC(C)C)C(=O)N[C@H](C(=O)N[C@@H](CCCCN)C(=O)NCC(=O)N[C@@H](CCCNC(=N)N)C(=O)N1CCC[C@H]1C(=O)N[C@@H](CO)C(=O)N[C@@H](CO)C(=O)NCC(=O)N[C@@H](C)C(=O)N1CCC[C@H]1C(=O)N1CCC[C@H]1C(=O)N1CCC[C@H]1C(=O)N[C@@H](CO)C(N)=O)C(C)C) | higher than the blood glucose levels of mice injected with the corresponding non-prodrug forms of the peptides |  |  |  |
| Peptide F-Peg: Peptide F sequence with Cys at 30 linked to a 40 kDa PEG; SEQ ID NO: 655 ([Desaminohistidyl]SEGTFTSDVSSYLEEQAAKEFIC(PEG 40 kDa)WLVKGRPSSGAPPPS-NH2) |  | decreased | less as compared to the blood glucose levels of mice injected with vehicle control | total efficacy over a week study [3]: comparable |
| Peptide G-Peg: pegylated prodrug, d-Phe-d-Val ester on Ser at position 8; SEQ ID NO: 656 ([Desaminohistidyl]S([dV-dF])EGTFTSDVSSYLEEQAAKEFIC(PEG 40 kDa)WLVKGRPSSGAPPPS-NH2) |  | decreased | less as compared to the blood glucose levels of mice injected with vehicle control | total efficacy over a week study [3]: comparable |
| Peptide G: prodrug of Peptide F, d-Phe-dVal ester on Ser at position 2 of Peptide F; SEQ ID NO: 651 ([Desaminohistidyl]S([dV-dF])EGTFTSDVSSYLEEQAAKEFIAWLVKGRPSSGAPPPS-NH2; SMILES CC[C@H](C)[C@H](NC(=O)[C@H](Cc1ccccc1)NC(=O)[C@H](CCC(=O)O)NC(=O)[C@H](CCCCN)NC(=O)[C@H](C)NC(=O)[C@H](C)NC(=O)[C@H](CCC(N)=O)NC(=O)[C@H](CCC(=O)O)NC(=O)[C@H](CCC(=O)O)NC(=O)[C@H](CC(C)C)NC(=O)[C@H](Cc1ccc(O)cc1)NC(=O)[C@H](CO)NC(=O)[C@H](CO)NC(=O)[C@@H](NC(=O)[C@H](CC(=O)O)NC(=O)[C@H](CO)NC(=O)[C@@H](NC(=O)[C@H](Cc1ccccc1)NC(=O)[C@@H](NC(=O)CNC(=O)[C@H](CCC(=O)O)NC(=O)[C@H](COC(=O)[C@H](NC(=O)[C@H](N)Cc1ccccc1)C(C)C)NC(=O)CCc1c[nH]cn1)[C@@H](C)O)[C@@H](C)O)C(C)C)C(=O)N[C@@H](C)C(=O)N[C@@H](Cc1c[nH]c2ccccc12)C(=O)N[C@@H](CC(C)C)C(=O)N[C@H](C(=O)N[C@@H](CCCCN)C(=O)NCC(=O)N[C@@H](CCCNC(=N)N)C(=O)N1CCC[C@H]1C(=O)N[C@@H](CO)C(=O)N[C@@H](CO)C(=O)NCC(=O)N[C@@H](C)C(=O)N1CCC[C@H]1C(=O)N1CCC[C@H]1C(=O)N1CCC[C@H]1C(=O)N[C@@H](CO)C(N)=O)C(C)C) | higher than the blood glucose levels of mice injected with its corresponding non-prodrug form |  |  |  |
| Peptide Y: GLP-1-based peptide with Cys at 30 linked to a 40 kDa PEG; SEQ ID NO: 653 (H[Aib]EGTFTSDVSSYLEEQAAKEFIC(PEG 40 kDa)WLVKGRPSSGAPPPS-NH2) |  | decreased | less as compared to the blood glucose levels of mice injected with vehicle control | potency in decreasing appetite and decreasing body weight ([3]; one week): most potent of the four peptides in decreasing appetite and decreasing body weight |
| Peptide Z: pegylated prodrug, d-Phe-d-Val ester on Ser at position 11; SEQ ID NO: 654 (H[Aib]EGS([dV-dF])FTSDVSSYLEEQAAKEFIC(PEG 40 kDa)WLVKGRPSSGAPPPS-NH2) |  | decreased | less as compared to the blood glucose levels of mice injected with vehicle control |  |
